In PubChem BioAssay AID1963854 (Molecular Pharmacology Branch, DTP, NCI, 2024):

System: 186277-243-T-J2-PDC complex spheroid viability
Assay: Anticancer human tumor 186277-243-T-J2-PDC patient-derived colon adenocarcinoma cell line growth inhibition [POLQ]
Details: for IC50: curve of first compound; for viability, T/C: stronger effect = lower value
In short: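 Growth inhibition in 3D: complex spheroids (tumor PDC, HUVEC, MSC) treated with POLQ inhibitor combinations; where Cmax unknown, highest tested concentration 10 microM, except SN-38 at 1 microM.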

[1] = second compound 0.0316 µM, first compound 0.000316 µM
[2] = second compound 0.0316 µM, first compound 0.001 µM
[3] = second compound 0.0316 µM, first compound 0.00316 µM
[4] = second compound 0.0316 µM, first compound 0.01 µM
[5] = second compound 0.0316 µM, first compound 0.0316 µM
[6] = second compound 0.0316 µM, first compound 0.1 µM
[7] = second compound 0.1 µM, first compound 0.000316 µM
[8] = second compound 0.1 µM, first compound 0.001 µM
[9] = second compound 0.1 µM, first compound 0.00316 µM
[10] = second compound 0.1 µM, first compound 0.01 µM
[11] = second compound 0.1 µM, first compound 0.0316 µM
[12] = second compound 0.1 µM, first compound 0.1 µM
[13] = second compound 0.316 µM, first compound 0.000316 µM
[14] = second compound 0.316 µM, first compound 0.001 µM
[15] = second compound 0.316 µM, first compound 0.00316 µM
[16] = second compound 0.316 µM, first compound 0.01 µM
[17] = second compound 0.316 µM, first compound 0.0316 µM
[18] = second compound 0.316 µM, first compound 0.1 µM
[19] = second compound 1 µM, first compound 0.000316 µM
[20] = second compound 1 µM, first compound 0.001 µM
[21] = second compound 1 µM, first compound 0.00316 µM
[22] = second compound 1 µM, first compound 0.01 µM
[23] = second compound 1 µM, first compound 0.0316 µM
[24] = second compound 1 µM, first compound 0.1 µM
[25] = second compound 3.16 µM, first compound 0.000316 µM
[26] = second compound 3.16 µM, first compound 0.001 µM
[27] = second compound 3.16 µM, first compound 0.00316 µM
[28] = second compound 3.16 µM, first compound 0.01 µM
[29] = second compound 3.16 µM, first compound 0.0316 µM
[30] = second compound 3.16 µM, first compound 0.1 µM
[31] = second compound 10 µM, first compound 0.000316 µM
[32] = second compound 10 µM, first compound 0.001 µM
[33] = second compound 10 µM, first compound 0.00316 µM
[34] = second compound 10 µM, first compound 0.01 µM
[35] = second compound 10 µM, first compound 0.0316 µM
[36] = second compound 10 µM, first compound 0.1 µM
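Further: spheroids exposed to compounds for seven days.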
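Wherever viability, T/C is given: 100% = DMSO vehicle control viability.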

In the case of CC[C@@]1(O)C(=O)OCc2c1cc1n(c2=O)Cc2cc3c(CN(C)C)c(O)ccc3nc2-1 + COC1C(OC(N)=O)C(O)C(Oc2ccc3c(O)c(NC(=O)c4ccc(O)c(CC=C(C)C)c4)c(=O)oc3c2C)OC1(C)C, the IC50 (second compound 0.0316 µM) is reported as 69.9 nM, the IC50 (second compound 0.1 µM) is reported as 60.7 nM and the IC50 (second compound 0.316 µM) is reported as 52.5 nM. It also gave an IC50 (second compound 1 µM) of 48.7 nM, an IC50 (second compound 3.16 µM) of 48.5 nM and an IC50 (second compound 10 µM) of 48 nM. For the same compound, the viability, T/C [1] was 105%, the viability, T/C [2] was 103% and the viability, T/C [3] was 97.4%. The viability, T/C [4] was 114%, the viability, T/C [5] was 65.5% and the viability, T/C [6] was 43%. For the same compound, the viability, T/C [7] was 96.1%, the viability, T/C [8] was 99.1% and the viability, T/C [9] was 117%. For the same compound, the viability, T/C [10] was 115%, the viability, T/C [11] was 60.4% and the viability, T/C [12] was 42%. For the same compound, the viability, T/C [13] was 101%, the viability, T/C [14] was 113% and the viability, T/C [15] was 104%. The viability, T/C [16] was 109%, the viability, T/C [17] was 57.9% and the viability, T/C [18] was 40%. The viability, T/C [19] was 105%, the viability, T/C [20] was 105% and the viability, T/C [21] was 97.1%. For the same compound, the viability, T/C [22] was 120%, the viability, T/C [23] was 57% and the viability, T/C [24] was 38.5%. It also gave a viability, T/C [25] of 97.3%, a viability, T/C [26] of 107% and a viability, T/C [27] of 102%. It also gave a viability, T/C [28] of 107%, a viability, T/C [29] of 56.6% and a viability, T/C [30] of 38.9%. For the same compound, the viability, T/C [31] was 107%, the viability, T/C [32] was 119% and the viability, T/C [33] was 104%. The viability, T/C [34] was 110%, the viability, T/C [35] was 56.3% and the viability, T/C [36] was 38.9%.

With CC[C@@]1(O)C(=O)OCc2c1cc1n(c2=O)Cc2cc3c(CN(C)C)c(O)ccc3nc2-1 + Nc1ccc(C#CCN(C(=O)Cc2ncc(C(F)(F)F)cc2C(F)(F)F)c2ccc(F)cc2)nn1 the IC50 (second compound 0.0316 µM) was greater than 100 nM, the IC50 (second compound 0.1 µM) was greater than 100 nM and the IC50 (second compound 0.316 µM) was greater than 100 nM. It also gave an IC50 (second compound 1 µM) greater than 100 nM, an IC50 (second compound 3.16 µM) greater than 100 nM and an IC50 (second compound 10 µM) greater than 100 nM. For the same compound, the viability, T/C [1] was 114%, the viability, T/C [2] was 98% and the viability, T/C [3] was 123%. It also gave a viability, T/C [4] of 114%, a viability, T/C [5] of 136% and a viability, T/C [6] of 91.7%. For the same compound, the viability, T/C [7] was 109%, the viability, T/C [8] was 93.8% and the viability, T/C [9] was 90.6%. For the same compound, the viability, T/C [10] was 129%, the viability, T/C [11] was 128% and the viability, T/C [12] was 88.1%. It also gave a viability, T/C [13] of 92.9%, a viability, T/C [14] of 87.2% and a viability, T/C [15] of 108%. For the same compound, the viability, T/C [16] was 133%, the viability, T/C [17] was 124% and the viability, T/C [18] was 83.8%. It also gave a viability, T/C [19] of 97.3%, a viability, T/C [20] of 105% and a viability, T/C [21] of 117%. For the same compound, the viability, T/C [22] was 115%, the viability, T/C [23] was 130% and the viability, T/C [24] was 81.1%. It also gave a viability, T/C [25] of 89.2%, a viability, T/C [26] of 91.5% and a viability, T/C [27] of 104%. It also gave a viability, T/C [28] of 122%, a viability, T/C [29] of 124% and a viability, T/C [30] of 79.9%. The viability, T/C [31] was 111%, the viability, T/C [32] was 89.7% and the viability, T/C [33] was 116%. The viability, T/C [34] was 121%, the viability, T/C [35] was 107% and the viability, T/C [36] was 70.6%.
